In PubChem BioAssay (NCI):
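Each compound was tested at five concentrations against cells in 96-well plates for 48 hours. The concentration for full growth arrest is given as TGI.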

How the values were obtained:
Test in all cases: inhibition of tumour cell growth, NCI panel, 48 h
786-0 renal = test system: 786-0 renal
A549 NSCLC = test system: A549 NSCLC
ACHN renal = test system: ACHN renal
BT-549 breast = test system: BT-549 breast
CAKI-1 renal = test system: CAKI-1 renal
CCRF-CEM leukemia = test system: CCRF-CEM leukemia
COLO 205 colon = test system: COLO 205 colon
DU-145 prostate = test system: DU-145 prostate
EKVX NSCLC = test system: EKVX NSCLC
HCC-2998 colon = test system: HCC-2998 colon
HCT-116 colon = test system: HCT-116 colon
HCT-15 colon = test system: HCT-15 colon
HL-60(TB) leukemia = test system: HL-60(TB) leukemia
HOP-62 NSCLC = test system: HOP-62 NSCLC
HS 578T breast = test system: HS 578T breast
HT29 colon = test system: HT29 colon
IGROV1 ovarian = test system: IGROV1 ovarian
K-562 leukemia = test system: K-562 leukemia
KM12 colon = test system: KM12 colon
LOX IMVI melanoma = test system: LOX IMVI melanoma
M14 melanoma = test system: M14 melanoma
MCF7 breast = test system: MCF7 breast
MDA-MB-231 breast = test system: MDA-MB-231 breast
MDA-MB-435 = test system: MDA-MB-435
MDA-N = test system: MDA-N
MOLT-4 leukemia = test system: MOLT-4 leukemia
NCI-H226 lung = test system: NCI-H226 lung
NCI-H23 lung = test system: NCI-H23 lung
NCI-H460 lung = test system: NCI-H460 lung
NCI-H522 lung = test system: NCI-H522 lung
NCI/ADR-RES ovarian = test system: NCI/ADR-RES ovarian
OVCAR-3 ovarian = test system: OVCAR-3 ovarian
OVCAR-4 ovarian = test system: OVCAR-4 ovarian
OVCAR-5 ovarian = test system: OVCAR-5 ovarian
OVCAR-8 ovarian = test system: OVCAR-8 ovarian
PC-3 prostate = test system: PC-3 prostate
RPMI-8226 leukemia = test system: RPMI-8226 leukemia
RXF 393 renal = test system: RXF 393 renal
SF-268 CNS = test system: SF-268 CNS
SF-295 CNS = test system: SF-295 CNS
SF-539 CNS = test system: SF-539 CNS
SK-MEL-2 melanoma = test system: SK-MEL-2 melanoma
SK-MEL-28 melanoma = test system: SK-MEL-28 melanoma
SK-MEL-5 melanoma = test system: SK-MEL-5 melanoma
SK-OV-3 ovarian = test system: SK-OV-3 ovarian
SN12C renal = test system: SN12C renal
SNB-19 CNS = test system: SNB-19 CNS
SR leukemia = test system: SR leukemia
SW-620 colon = test system: SW-620 colon
T-47D breast = test system: T-47D breast
TK-10 renal = test system: TK-10 renal
U251 CNS = test system: U251 CNS
UACC-257 melanoma = test system: UACC-257 melanoma
UACC-62 melanoma = test system: UACC-62 melanoma
UO-31 renal = test system: UO-31 renal
HOP-92 NSCLC = test system: HOP-92 NSCLC
MALME-3M melanoma = test system: MALME-3M melanoma
SNB-75 CNS = test system: SNB-75 CNS

In the case of C=CCn1c(=O)c2ccccc2[n+]2c(C)c(C(=O)OCC)sc12, the TGI (786-0 renal) is reported as over 100 µM, the TGI (A549 NSCLC) is reported as over 100 µM and the TGI (ACHN renal) is reported as over 100 µM. The TGI (BT-549 breast) was over 100 µM, the TGI (CAKI-1 renal) was over 100 µM and the TGI (CCRF-CEM leukemia) was over 100 µM. The TGI (COLO 205 colon) was over 100 µM, the TGI (DU-145 prostate) was over 100 µM and the TGI (EKVX NSCLC) was over 100 µM. The TGI (HCC-2998 colon) was over 100 µM, the TGI (HCT-116 colon) was over 100 µM and the TGI (HCT-15 colon) was over 100 µM. For the same compound, the TGI (HL-60(TB) leukemia) was over 100 µM, the TGI (HOP-62 NSCLC) was over 100 µM and the TGI (HS 578T breast) was over 100 µM. It also gave a TGI (HT29 colon) of over 100 µM, a TGI (IGROV1 ovarian) of over 100 µM and a TGI (K-562 leukemia) of over 100 µM. For the same compound, the TGI (KM12 colon) was over 100 µM, the TGI (LOX IMVI melanoma) was over 100 µM and the TGI (M14 melanoma) was over 100 µM. The TGI (MCF7 breast) was over 100 µM, the TGI (MDA-MB-231 breast) was over 100 µM and the TGI (MDA-MB-435) was over 100 µM. For the same compound, the TGI (MDA-N) was over 100 µM, the TGI (MOLT-4 leukemia) was over 100 µM and the TGI (NCI-H226 lung) was over 100 µM. It also gave a TGI (NCI-H23 lung) of over 100 µM, a TGI (NCI-H460 lung) of over 100 µM and a TGI (NCI-H522 lung) of over 100 µM. It also gave a TGI (NCI/ADR-RES ovarian) of over 100 µM, a TGI (OVCAR-3 ovarian) of over 100 µM and a TGI (OVCAR-4 ovarian) of over 100 µM. The TGI (OVCAR-5 ovarian) was over 100 µM, the TGI (OVCAR-8 ovarian) was over 100 µM and the TGI (PC-3 prostate) was over 100 µM. The TGI (RPMI-8226 leukemia) was over 100 µM, the TGI (RXF 393 renal) was over 100 µM and the TGI (SF-268 CNS) was over 100 µM. It also gave a TGI (SF-295 CNS) of over 100 µM, a TGI (SF-539 CNS) of over 100 µM and a TGI (SK-MEL-2 melanoma) of over 100 µM. The TGI (SK-MEL-28 melanoma) was over 100 µM, the TGI (SK-MEL-5 melanoma) was over 100 µM and the TGI (SK-OV-3 ovarian) was over 100 µM. It also gave a TGI (SN12C renal) of over 100 µM, a TGI (SNB-19 CNS) of over 100 µM and a TGI (SR leukemia) of over 100 µM. It also gave a TGI (SW-620 colon) of over 100 µM, a TGI (T-47D breast) of over 100 µM and a TGI (TK-10 renal) of over 100 µM. The TGI (U251 CNS) was over 100 µM, the TGI (UACC-257 melanoma) was over 100 µM and the TGI (UACC-62 melanoma) was over 100 µM. For the same compound, the TGI (UO-31 renal) was over 100 µM.
In the case of Cc1ccc(S(=O)(=O)OC2CCN(C)CC2)cc1, the TGI (786-0 renal) is reported as over 100 µM, the TGI (A549 NSCLC) is reported as over 100 µM and the TGI (ACHN renal) is reported as over 100 µM. For the same compound, the TGI (BT-549 breast) was over 100 µM, the TGI (COLO 205 colon) was 42.3 µM and the TGI (DU-145 prostate) was over 100 µM. It also gave a TGI (EKVX NSCLC) of over 100 µM, a TGI (HCT-116 colon) of over 100 µM and a TGI (HCT-15 colon) of over 100 µM. The TGI (HL-60(TB) leukemia) was 37.3 µM, the TGI (HOP-62 NSCLC) was over 100 µM and the TGI (HOP-92 NSCLC) was 42.3 µM. The TGI (HS 578T breast) was over 100 µM, the TGI (HT29 colon) was over 100 µM and the TGI (IGROV1 ovarian) was over 100 µM. It also gave a TGI (K-562 leukemia) of 40.4 µM, a TGI (LOX IMVI melanoma) of over 100 µM and a TGI (M14 melanoma) of over 100 µM. The TGI (MALME-3M melanoma) was 37.9 µM, the TGI (MCF7 breast) was over 100 µM and the TGI (MDA-MB-231 breast) was over 100 µM. It also gave a TGI (MDA-MB-435) of over 100 µM, a TGI (MDA-N) of over 100 µM and a TGI (MOLT-4 leukemia) of 36.6 µM. It also gave a TGI (NCI-H23 lung) of over 100 µM, a TGI (NCI-H460 lung) of over 100 µM and a TGI (NCI-H522 lung) of 46.5 µM. It also gave a TGI (NCI/ADR-RES ovarian) of over 100 µM, a TGI (OVCAR-3 ovarian) of over 100 µM and a TGI (OVCAR-4 ovarian) of over 100 µM. The TGI (OVCAR-5 ovarian) was over 100 µM, the TGI (OVCAR-8 ovarian) was over 100 µM and the TGI (PC-3 prostate) was over 100 µM. It also gave a TGI (RPMI-8226 leukemia) of 49.8 µM, a TGI (RXF 393 renal) of over 100 µM and a TGI (SF-268 CNS) of over 100 µM. The TGI (SF-295 CNS) was over 100 µM, the TGI (SF-539 CNS) was over 100 µM and the TGI (SK-MEL-2 melanoma) was over 100 µM. The TGI (SK-MEL-28 melanoma) was over 100 µM, the TGI (SK-MEL-5 melanoma) was 44.6 µM and the TGI (SK-OV-3 ovarian) was over 100 µM. It also gave a TGI (SN12C renal) of over 100 µM, a TGI (SNB-19 CNS) of over 100 µM and a TGI (SNB-75 CNS) of over 100 µM. It also gave a TGI (SR leukemia) of 49.9 µM, a TGI (SW-620 colon) of 42 µM and a TGI (T-47D breast) of 48.6 µM. The TGI (TK-10 renal) was over 100 µM, the TGI (U251 CNS) was over 100 µM and the TGI (UACC-257 melanoma) was over 100 µM. For the same compound, the TGI (UACC-62 melanoma) was over 100 µM.
